Source: US4716225A, “Radioopaque sugar derivatives and a method of metabolic mapping using the same” (priority 1985, dated 1987)
Entries after “also recorded” stand apart in the source; their conditions may differ. Where two headings read alike, the source gives them in different places.

Columns and labels:
[1] = Gross toxicology after intravenous (tail vein) injection in mice and rats; format: in vivo
Experimental: (§1) Gross Toxicology. In order to be economical with the product, the gross toxicology of 6-IG was first determined in mice and rats. Enough material was injected in a volume of 0.1 ml into the tail vein to raise the blood concentration to 10^-3, 10^-2, and 10^-1 M, (0.02-2.11 g/kg). As an osmotic control, equimolar amounts of α-D-galactopyranose were injected into age matched animals.
6-IG was injected intravenously into 20 g male mice and equivalent amounts of α-D-galactopyranose were injected into age-matched controls. […] Three days post-injection, the animals were killed by ether inhalation and autopsied.

[2] = system: blood/brain barrier saturable carrier of glucose; conditions: cited from earlier work
[3] = Observation of side effects after intravenous injection in dogs; format: in vivo, Mongrel dogs
Experimental: (§2) Mongrel dogs (40-50 lbs) were injected intravenously with a bolus of α-D-galactose sufficient to raise the blood concentration to a level of 10^-2 M. They were then required to walk from the animal facility to the CAT scanner, approximately 10 minutes, where they were anesthetized. Anesthesia was induced with thiamytal (lmg/kg) and the animal was intubated with a cuffed endotrachial tube. Following induction, anesthesia was maintained with a gaseous mixture of Halothane, nitrous oxide and oxygen.
(§3) The time elapsed from injection to the start of the scan was approximately 1 hour. CAT scanning data were recorded on tape and served as a background control. Upon completion of scanning, the dog was recovered from anesthesia and returned to the animal facility, where routine care was resumed.
(§4) This procedure was repeated one day later; however, 6-IG was injected to an initial blood concentration of 10^-2 M. Nine days and 33 days following the injection, repeat scans were performed to ensure that the contrast medium had cleared.

brain [4] = conditions: 0.5 mg FDG injection, cited from earlier work
[5] = Observation of side effects after injection into mice, rats, and dogs; format: in vivo; conditions: in the concentrations described
Experimental: This is the region associated with limb and tail movement in the dog. […] Thus, the accumulation can be made to be selective.
as §1, §2

brain [6] = assay: Feasibility calculation of brain concentration of 6-iodo-D-galactose; parameters: species or system human
Description: It appears feasible to achieve such concentrations in, for example, brain tissue, by administering a sufficient amount of 6-iodo-D-galactose to obtain an initial blood concentration of about 10^-2 M in the patient.
However, it is proposed to use 6-iodo-D-galactose or other such 2-, 5- or 6-substituted hexoses. […] But the uptake of galactose relative to 2-deoxyglucose is 31%. Therefore, it is estimated that the total brain concentration of 6-iodo-D-galactose is approximately 20%×0.31, or 6% of the initial blood concentration. When the initial blood concentration is 10^-2 M, final brain concentration would approximate 6×10^-4 M. To achieve this, it is necessary to inject approximately 15 grams of iodogalactose. [formula]
An adult has a blood volume of approximately 4-5 L, so to achieve the desired concentration of 10^-2 M (moles per liter) of 6-iodo-galactosewhose formula weight is 290 g/mole will require:
wt=(5 liter)(1 X10^-2 mole/liter)(290 g/mole)=14 g.
Thus, the criterion of having a brain concentration within the range of 10^-4 to 10^-3 M is met. Although this concentration is the lower limit of detection, it should not deleteriously affect the clarity of the brain CAT scan. […]

brain [7] = assay: CAT scanning of dog brain after injection of contrast medium; format: in vivo
Experimental: as §2, §3, §4
The dog's brains were scanned by CAT in sequential slices in 3 mm. increments. […] The arrow indicates the regions where contrast was observed.

OC[C@H]1O[C@H](O)[C@H](O)[C@@H](O)[C@H]1O [α-D-galactopyranose, reference compound]
gross findings at autopsy ([1]; in vivo, iv): no gross findings | immediate effects of injection on the animals ([1]; in vivo, iv): no apparent immediate effects on the animals | uptake relative to 2-deoxyglucose [2]: 31% | crossing of blood/brain barrier ([2]; same saturable carrier as glucose): cross the blood/brain barrier by the same saturable carrier as glucose | apparent side effects ([3]; dog, in vivo, iv): Neither the control nor the iodinated injection medium had any apparent side effects

Fluorodeoxyglucose [FDG]
brain concentration of FDG (brain [4]; after 40 minutes accumulation time): 25 ng/cc | brain concentration as percent of initial blood concentration (brain [4]; human, 40 min): 20% | concentration (brain [4]; read-out: molar brain concentration of FDG, after 40 minutes, brain cell volume 1 L): 0.138 µM

O[C@@H]1[C@@H](O)[C@@H](O)O[C@H](CI)[C@@H]1O [6-IG, 6-iodo-6-deoxy-α-D-galactopyranose]
immediate effects of injection on the animals ([1]; 20 g male mice, i.v., max 2.11 g 6-IG/kg or equivalent amount of α-D-galactopyranose): no apparent immediate effects on the animals | gross findings at autopsy ([1]; mice, three days post-injection, i.v., max 2.11 g 6-IG/kg): no gross findings | obvious side effects [5]: do not produce any obvious side effects | estimated total brain concentration as percent of initial blood concentration (brain [6]; calculated as 20%×0.31): ~6% | concentration (brain [6]; initial blood concentration 10^-2 M, read-out: estimated final brain concentration): ~600 µM | contrast accumulation in the cortical area, posterior portion of frontal lobe (brain [7]; 1 hour post-injection, initial blood concentration 10^-2 M): accumulated in the cortical area of the posterior portion of the frontal lobe within one hour after injection; also recorded: beginning of accumulation as early as 1 hour post-injection | contrast in pareital region and other areas of the brain (brain [7]; 9 days post-injection (FIG. 3)): no contrast is seen in the pareital lobe intracellular section shown in FIG. 3, nor in any other areas of the brain that were scanned; also recorded: no contrast medium has accumulated in that section of the brain | contrast accumulation in the cortical area, posterior portion of frontal lobe (brain [7]; 9 days post-injection, initial blood concentration 10^-2 M): greater contrast is seen in the same region 9 days post-injection; also recorded: greater contrast in the same cortical regions | clearance of contrast medium (brain [7]; 33 days post-injection, initial blood concentration 10^-2 M): cleared completely | accumulation and clearance compared to FDG (PET) (brain [7]; compared to Fluorodeoxyglucose): relatively slower | time of peak concentration (brain [7]; dog brain, between 1 hour and 9 days post-injection): some time inbetween | clearance of the compound (brain [7]; dog brain, present at nine days post injection): relatively slow | distribution of accumulation in brain (brain [7]; general statement on accumulation in dog brain): accumulates in areas of the brain that are metabolically hyperactive in response to normal stimuli | distribution of accumulation after digitization (brain [7]; slice of FIG. 2C, 9 days post-injection, background subtracted): generally greatest in the cortical region | apparent side effects ([3]; dogs, i.v., initial blood concentration 10^-2 M): Neither the control nor the iodinated injection medium had any apparent side effects

OC[C@H]1OC(O)C[C@@H](O)[C@@H]1O (stereo partly drawn) [2-deoxyglucose]
crossing of blood/brain barrier [2]: cross the blood/brain barrier by the same saturable carrier as glucose
